One test has as its target T1, POS-1 (Caenorhabditis elegans, UniProt G5EF15).
T1 construct: 6-his tag (N); made in house; host or cells: E. coli BL21 (DE3) Gold
T1 sequence (G5EF15 80-180): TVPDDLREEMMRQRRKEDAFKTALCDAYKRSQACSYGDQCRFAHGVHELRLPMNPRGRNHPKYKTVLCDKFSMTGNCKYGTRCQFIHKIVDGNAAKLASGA
As to the kind of experiment: Fluorescence polarization screening of POS-1 binding to fluorescein-labeled BMF018 RNA. The conditions noted are these: read-out: POS-1 score. (Polarisation of emitted light reports the rotation of a fluorescent probe.)

The target of a further test is T2, MEX-5 (Caenorhabditis elegans, UniProt Q9XUB2).
T2 construct: The fragment of mex-5 containing the TZF domain (amino acids 236-350) was amplified; made in house; host or cells: Escherichia coli JM109
T2 sequence (Q9XUB2 236-350): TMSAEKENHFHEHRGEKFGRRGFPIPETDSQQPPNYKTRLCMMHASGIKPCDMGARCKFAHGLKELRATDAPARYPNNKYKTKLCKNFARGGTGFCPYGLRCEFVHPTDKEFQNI
The test is described as follows: Fluorescence polarization screening of MEX-5 binding to fluorescein-labeled TCR2 RNA. As to conditions: read-out: MEX-5 score. An excerpt: The expression and purification of recombinant MEX-5 protein has previously been described in Pagano, J. M., Farley, B. M., McCoig, L. M. and Ryder, S. P. (2007) “Molecular basis of RNA recognition by the embryonic polarity determinant MEX-5;” J Biol Chem; 282, 8883-8894. The fragment of mex-5 containing the TZF domain (amino acids 236-350) was amplified from a commercially available ORFeome clone (Open Biosystems) and sub-cloned into the vector pMal-c (NEB), which encodes maltose binding protein as an N-terminal fusion. This construct is termed pMal-MEX-5 (236-350).
MEX-5 is expressed in Escherchia. coli JM109 liquid cultures grown at 37° C. Cultures were induced during mid log phase by the addition of 0.1 mM isopropyl 1-thio-β-D-galactopyranoside (IPTG) and allowed to grow for three hours. An amount of 100 μM zinc acetate (final concentration) was added at the time of induction. The pelleted cells were resuspended in lysis buffer (50 mM Tris pH 8.8, 200 mM NaCl, 2 mM DTT, EDTA free protease inhibitor tablet (Roche), 100 μM Zn(OAc)2) and lysed by sonication. The soluble protein was purified in three steps using standard chromatography methods: (1) amylose affinity (NEB), (2) Hi-TRAP-Q (GE Healthcare), and (3) Hi-TRAP-S (GE Healthcare). The Q buffer was composed of 50 mM Tris, pH 8.8, 20 mM-1500 mM NaCl, 2 mM DTT, and 100 μM Zn(OAc)2. The S buffer was composed of 50 mM MOPS, pH 6.0, 20 mM-1500 mM NaCl, 2 mM DTT, 100 μM Zn(OAc)2. The pure fractions, determined by coomassie-stained SDS-PAGE, were dialyzed into storage buffer (20 mM Tris, pH 8.0, 25 mM NaCl, 100 μM Zn(OAc)2, 2 mM DTT). The protein concentration was determined by measuring absorbance at 280 nm and the calculated extinction coefficient. The protein was stored at 50 μM concentration at 4° C.
All RNA oligonucleotides were chemically synthesized by Dharmacon or Integrated DNA Technologies. Upon arrival, each RNA was deprotected and stored according to the manufacturer's instructions. Prior to use, the RNA was resuspended in 10 mM Tris-HCl, pH 8.0, 0.1 mM EDTA, and the concentration determined by UV spectrophotometry using the calculated extinction coefficient at 260 nm based on the specific sequence. The sequence of the MEX-5 binding RNA (TCR2) is […] (SEQ ID NO:1). The POS-1 binding RNA (BMF018) is […] (SEQ ID NO:2). The MEX-3 binding RNA (SEQ 14) is […] (SEQ ID NO:3).
The RNA used for the small molecule screen was labeled at the 3′-end with fluorescein by Dharmacon during synthesis. In a few cases, follow up experiments were performed with post-synthetically labeled RNA. In this case, fluorescein 5-thiosemicarbazide (FTSC, Invitrogen) was used to 3′-end label each RNA after treatment with sodium periodate (see Reines, S. A. and Cantor, C. R. (1974) “New fluorescent hydrazide reagents for the oxidized 3′-terminus of RNA” Nucleic Acids Res. 1, 767-786). A representative 50 μl reaction consisted of 0.5 nanomoles RNA, 100 mM NaOAc, pH 5.1, and 5 nanomoles NaIO4. After the reaction was complete (90 minutes at room temperature), the sample was ethanol precipitated by adding 1 μl RNase free glycogen (Invitrogen 20 μg/μl), 1/20th volume of 5 M NaCl, and 2 volumes of 100% ice-cold ethanol. The resulting pellet was resuspended in 50 μl of 100 mM NaOAc, pH 5.1 containing 1 mM FTSC and was allowed to react overnight at 4° C. in the dark. The unreacted label was removed by ethanol precipitation with resuspension of the pellet in a small volume of TE, and purification over a Roche G-25 size exclusion spin column. The labeling efficiency is determined by calculating the ratio of fluorescein absorbance at 490 nm to RNA-fluorescein absorbance at 260 nm. Typical efficiencies are 60-80%.
The ability of MEX-5 to associate with RNA was monitored by fluorescence polarization using a victor V3 or victor V2V plate reader (Perkin Elmer) in 384-well FluoTrak microplates (Grenier). […]

Where [1] appears, read: 192 μM test compound, score = polarization relative to no-drug and no-protein controls, 0.25 = 75% inhibition, lowest score = greatest inhibition.

Like-named read-outs stand apart in the source and are kept apart here.

For `O=C(Oc1ccc2c(c1)C1C=CCC1C(C(=O)O)N2)c1ccc(Cl)cc1Cl` (stereo not shown) [K], the remaining activity at 192 µM came out at 5.81% on POS-1 (setting [1]) and 0.00138% on MEX-5 (setting [1]).

Consider `O=C(O)C1Nc2cc(Cl)cc(Cl)c2C2C=CCC12` (stereo not shown) [W], for which the remaining activity at 192 µM at POS-1 (setting [1]) was determined as 5.39%; on MEX-5 (setting [1]), 6.4%.

For the molecule `Cc1nnc(NC(=O)c2cccc(C(=O)Nc3nnc(C)s3)n2)s1` [AF], the remaining activity at 192 µM on POS-1 (setting [1]) was found to be 22.7%; on MEX-5 (setting [1]) it was 8.13%.

On to `O=C(O)c1ccccc1NC(=S)NC(=O)c1sc2ccccc2c1Cl` [BP], for which the remaining activity at 192 µM on POS-1 (setting [1]) amounted to 4.54%; on MEX-5 (setting [1]), 19.2%.

For `CCc1nnc(NS(=O)(=O)c2ccc(NC(=O)c3cc4cc(OC)ccc4oc3=O)cc2)s1` [BU], the remaining activity at 192 µM at POS-1 (setting [1]) turned out to be 18.1%; on MEX-5 (setting [1]), 20.8%.

As to `COc1ccc(C(=O)NC(=S)Nc2ccc(C(=O)O)c(Cl)c2)cc1[N+](=O)[O-]` [BF], the remaining activity at 192 µM on POS-1 (setting [1]) turned out to be 9.05%; at MEX-5 (setting [1]) it was 16.7%.

Turning to `Cn1c(S)nnc1-c1ccccc1O` [Z], the results for the remaining activity at 192 µM at POS-1 (setting [1]) and at MEX-5 (setting [1]) were 12.7% and 6.88%, respectively.

Consider `O=S(=O)(Nc1ccc(Cl)cc1O)c1ccccc1` [D], for which the remaining activity at 192 µM on POS-1 (setting [1]) was -3.79%; on MEX-5 (setting [1]), -1.58%.

Consider `Cc1n[nH]c(SCc2ccc(CSc3nc(C)n[nH]3)cc2)n1` [AA], for which the remaining activity at 192 µM on POS-1 (setting [1]) turned out to be 0.702%; at MEX-5 (setting [1]), 7.14%.

With `O=C(Cn1cnc2ccccc2c1=O)Nc1ccc(S(=O)(=O)Nc2nccs2)cc1` [BJ], the remaining activity at 192 µM at POS-1 (setting [1]) is 11.9%; at MEX-5 (setting [1]), 18.2%.

Take `O=C(O)c1ccc(Sc2nnc(-c3cccc(Br)c3)o2)c([N+](=O)[O-])c1` [G]: the values for the remaining activity at 192 µM on POS-1 (setting [1]) and on MEX-5 (setting [1]) were 24.2% and -0.64%, respectively.

With `Oc1ccc(Br)cc1-c1n[nH]c(=S)n1Cc1ccccc1` [CB], the remaining activity at 192 µM at POS-1 (setting [1]) stood at 23.9%; on MEX-5 (setting [1]) it was 21.7%.

Turning to `O=C(O)CCn1cc(C=C2C(=O)NC(=S)NC2=O)c(-c2cc3ccccc3oc2=O)n1` [BA], the figures for the remaining activity at 192 µM at POS-1 and at MEX-5 were 22.2% and 15.2%, respectively.

Turning to `COc1ccccc1C(=O)NC(=S)Nc1ccc(C(=O)O)c(Cl)c1` [BV], the remaining activity at 192 µM on POS-1 (setting [1]) was determined as 12.2%; on MEX-5 (setting [1]), 21.1%.

As for `O=S(=O)(Nc1ccc(O)c(NS(=O)(=O)c2ccccc2)c1)c1ccccc1` [F], the remaining activity at 192 µM at POS-1 (setting [1]) was -2.79%; at MEX-5 (setting [1]), -0.711%.

For `O=S(=O)(Nc1nc(-c2ccccc2)c(-c2ccccc2)o1)c1ccc(Cl)cc1` [CO], the remaining activity at 192 µM on POS-1 (setting [1]) was found to be 16%; on MEX-5 (setting [1]), 24.1%.

In the case of `COC(=O)c1ccccc1OC(=O)c1ccc2c(c1)C1C=CCC1C(C(=O)O)N2` (stereo not shown) [A], the remaining activity at 192 µM on POS-1 (setting [1]) is 7.5%; on MEX-5 (setting [1]), -10.3%.

For the molecule `O=C(O)c1ccc(C2Nc3ccc([N+](=O)[O-])cc3C3c4ccccc4CC23)cc1` (stereo not shown) [AB], the remaining activity at 192 µM at POS-1 (setting [1]) was 10.9%; at MEX-5 (setting [1]) it was 7.3%.

On to `CC(=O)Oc1ccc(S(=O)(=O)c2ccc(OC(C)=O)c(OC(C)=O)c2)cc1OC(C)=O` [J], for which the remaining activity at 192 µM on POS-1 (setting [1]) is 8.51%; at MEX-5 (setting [1]), -0.0941%.

As for `CCOc1cc(C(NC(C)=O)c2cc([N+](=O)[O-])c3cccnc3c2O)ccc1O` (stereo not shown) [AL], the remaining activity at 192 µM turned out to be 12.3% at POS-1 (setting [1]) and 10.4% on MEX-5 (setting [1]).

Take `Sc1nnc(CSCc2ccccc2Cl)n1-c1ccccc1` [BL]: the values for the remaining activity at 192 µM on POS-1 (setting [1]) and at MEX-5 (setting [1]) were 27.6% and 18.8%, respectively.

Consider `CC1(C)Cc2ccccc2-c2[nH]c3nnc(S)n3c(=O)c21` [O], for which the remaining activity at 192 µM on POS-1 (setting [1]) worked out at 4.77%; on MEX-5 (setting [1]), 2.3%.

For `CCOC(=O)c1ccccc1OC(=O)c1ccc2c(c1)C1C=CCC1C(C(=O)O)N2` (stereo not shown) [B], the figures for the remaining activity at 192 µM at POS-1 (setting [1]) and on MEX-5 (setting [1]) were 5.51% and -3.69%, respectively.

As for `Oc1ccc(-c2csc(Nc3cccc4ccccc34)n2)cc1O` [AY], the remaining activity at 192 µM on POS-1 (setting [1]) is 18%; at MEX-5 (setting [1]), 14.1%.

`COc1ccc(NC(=S)c2nc3ccccc3[nH]2)cc1` [T]: the remaining activity at 192 µM is 8.99% at POS-1 (setting [1]) and 5.51% on MEX-5 (setting [1]).

Take `Cc1sc(NC(=O)c2cnccn2)c(C(N)=O)c1C` [AZ]: the remaining activity at 192 µM at POS-1 (setting [1]) worked out at 25.4%; at MEX-5 (setting [1]), 14.4%.

As to `Cc1ccc(O)c(NS(=O)(=O)c2ccc([N+](=O)[O-])cc2)c1` [CD], the values for the remaining activity at 192 µM at POS-1 (setting [1]) and at MEX-5 (setting [1]) were 12.4% and 22.6%, respectively.

On to `Cc1n[nH]c(SCc2cccc(CSc3nc(C)n[nH]3)c2)n1` [L], for which the remaining activity at 192 µM at POS-1 (setting [1]) is -0.0864%; at MEX-5 (setting [1]), 1.21%.

On to `O=C1NN(c2cccc(Br)c2)C(=O)/C1=C\c1cccc(OC(=O)c2cccs2)c1` [BI], for which the remaining activity at 192 µM is 10.6% on POS-1 (setting [1]) and 17.9% at MEX-5 (setting [1]).

For the molecule `CC(=O)NC(c1ccco1)c1cc([N+](=O)[O-])c2cccnc2c1O` (stereo not shown) [Y], the remaining activity at 192 µM came out at 6.04% at POS-1 (setting [1]) and 6.77% at MEX-5 (setting [1]).

Turning to `O=C(O)C1CCC(N2C(=O)c3c(Cl)c(Cl)c(Cl)c(Cl)c3C2=O)CC1` (stereo not shown) [AO], the remaining activity at 192 µM on POS-1 (setting [1]) amounted to 6.81%; on MEX-5 (setting [1]) it was 10.6%.

`CCCCN1C(=O)/C(=c2\sc3nc(-c4ccccc4OC(C)=O)nn3c2=O)c2ccccc21` [M]: the values for the remaining activity at 192 µM at POS-1 (setting [1]) and on MEX-5 (setting [1]) were 11.7% and 1.62%, respectively.

Turning to `Cc1ccc(S(=O)(=O)NC(=S)NCc2cccc(Oc3ccccc3)c2)cc1` [BY], the remaining activity at 192 µM stood at 14.4% on POS-1 (setting [1]) and 21.3% on MEX-5 (setting [1]).

Regarding `O=C(O)c1cc(NC(=O)c2cccc(N3C(=O)CCC3=O)c2)cc(C(=O)O)c1` [AH], the results for the remaining activity at 192 µM on POS-1 (setting [1]) and at MEX-5 (setting [1]) were 14.6% and 8.76%, respectively.

As to `O=C(Nc1nnc[nH]1)c1ccccc1O` [AI], the remaining activity at 192 µM at POS-1 (setting [1]) is 2.5%; at MEX-5 (setting [1]), 9.13%.

Turning to `O=[N+]([O-])c1ccc(S(=O)(=O)Nc2cc(Cl)ccc2O)cc1` [AD], the remaining activity at 192 µM turned out to be 8.27% on POS-1 (setting [1]) and 8.04% at MEX-5 (setting [1]).

For `Cc1[nH]nc(-c2ccc(O)c(O)c2O)c1-c1ccccc1` [P], the remaining activity at 192 µM on POS-1 (setting [1]) was determined as 4.3%; on MEX-5 (setting [1]), 3.42%.

Turning to `CC1(C)CC(Cc2nnc(S)[nH]2)C(=O)O1` (stereo not shown) [S], the values for the remaining activity at 192 µM on POS-1 (setting [1]) and on MEX-5 (setting [1]) were 10.5% and 5%, respectively.
